Where no end group is shown, it is not given here.

Data on two substances can be found in US5521069A, “Genomic DNA exons having exons encoding human pituitary adenylate cyclase activity peptide with 38 amino acids residues(PACAP38) and a promoter thereof” (Takeda Chemical Industries, Ltd., priority 1990, dated 1996).

In one test the test system is rat pituicytes. In words: Adenylate Cyclase Stimulating Test in Rat Pituicyte Culture. The format is cell-based. Particulars: Experiment 2, blank 1.35 ± 0.05. From the text:
The amino acid sequence of sheep PACAP38 is believed to be identical to that of human PACAP38. […] The minimum effective amount was 10^-12 M, and it was shown that the activity increased with increasing concentration.

Test [1] is described as follows: Hypotensive activity in anesthetized male Wistar rats. The class given is in vivo, rat. The note with it: nembutal anesthesia. On the procedure:
Using male Wistar rats having a body weight of 350 g under nembutal anesthesia, the hypotensive activity was measured.

For PACAP27 NH2 [Syn.27p-NH2], the “cAMP (M ± SEM)” value in the test on rat pituicytes (10^-7 M) amounted to 9.20 ± 0.20 p mol/ml; in the test on rat pituicytes (10^-8 M) it was 9.20 ± 0.00 p mol/ml; with rat pituicytes (10^-9 M) it was 7.90 ± 0.30 p mol/ml; in the test with rat pituicytes (10^-10 M) it was 4.00 ± 0.20 p mol/ml; in the test on rat pituicytes (10^-11 M), 2.55 ± 0.15 p mol/ml; in the test with rat pituicytes (10^-12 M), 2.05 ± 0.15 p mol/ml. The results for the “Hypotensive activity (decrease from normal value)” value in test [1] (dosage 0.3 n mole/kg), in test [1] (dosage 1.0 n mole/kg) and in test [1] (dosage 3.0 n mole/kg) were 14.5 ± 3.1 mm Hg, 51.9 ± 9.6 mm Hg and 4.1 mm Hg, respectively.
As to “PACAP38 NH2 (HSDGIFTDSYSRYRKQMAVKKYLAAVLGKRYKQRVKNK-NH2; UniProt P18509 132-169, looked up)”, the results for the “Hypotensive activity (decrease from normal value)” value in test [1] (dosage 0.3 n mole/kg), in test [1] (dosage 1.0 n mole/kg) and in test [1] (dosage 3.0 n mole/kg) were 3.2 ± 1.9 mm Hg, 17.4 ± 2.4 mm Hg and 29.8 ± 3.6 mm Hg, respectively.
